Source: patent publication US10322137B2, “Platinum compounds, compositions, and uses thereof” (PLACON THERAPEUTICS, INC., priority 2014, dated 2019)

Experiments:
[1] = system: MX-1 human breast cancer xenograft (BRCA1 and BRCA2 mutant); assay: MX-1 human breast cancer xenograft study; type: in vivo, mice
Experimental: (§1) Tumor measurements were taken twice weekly, using vernier calipers.
(§2) All statistical analyses were performed using GraphPad PRISM®. Version 6.00.
Tumor volumes of MX-1 induced xenografts in mice were measured after multiple intravenous doses of compound 8 at 15 mg/kg at day 1, day 5, day 8 and day 12 (two times per week for two weeks) for the main study group. […] MX-1 cell line is estrogen receptor negative and Her2 normal. It is BRCA1 and BRCA2 mutant: BRCA1 truncating mutation (3363delGAAA) and BRCA2 mutations (16864A>C, Asn289His, and 22184A>G, Asn991Asp). Satellite groups (n=5) were collected on Day 9 for platinum tumor measurements. […] Only one tumor from the 10 mg/kg group began to grow back at on Day 71, with a volume of 39 mm^3 at end of study, Day 75.

H460 tumors = assay: Tumor platinum levels in H460 tumor-bearing nude mice (ICP-MS); type: in vivo; conditions: dosed at 4 mg/kg, 24-hour time point
Experimental: To examine the ability of compounds disclosed herein to accumulate in tumors, a murine cancer model was used. Animals were inoculated with 5×10^5 H460 […] lung cancer cells via subcutaneous injection to the flank. Tumors were allowed to reach an approximate volume of ˜500 mm^3. Animals were then randomized into treatment groups of 3 animals per time point and were dosed at 4 mg/kg. The 24-hour time point was used as a benchmark across compounds.
Tumor platinum levels were determined by inductively coupled plasma mass spectrometry (ICP-MS). Tumors were excised from animals and dissolved in fuming nitric acid (60% w/w) by adding four parts nitric acid to 1 part tumor w/w and heating overnight at 60° C. The resulting digest was diluted 1:10 in ICP-MS analysis buffer (1% nitric acid, 2% Triton® X-100), and directly introduced into the ICP-MS unit by peristaltic pump. The end dilution factor for the samples as introduced to the ICP-MS was 50×.

[2] = target: albumin tryptic peptide T3 (Homo sapiens, UniProt P02768); assay: LC MS/MS analysis with albumin tryptic peptide T3; type: binding; conditions: FIG. 11B
Text: Signals of T3 endogenous conjugates and T3-Compound 8 conjugates were observed and were evidence that Compound 8 binds to T3.

[3] = in vivo
Experimental: (§3) Platinum concentrations in rat (n=3) and dog (n=3) were both measured in a course of 100 hours and 400 hours, respectively.

[4] = in vivo; remark: listed apart in the source
Experimental: as §3

[5] = system: NCI-H520 lung cancer (NSCLC) model; assay: NCI-H520 multiple dose study: tumor volume, platinum levels, IHC and TUNEL; type: in vivo; conditions: day 10, FIG. 24 and 25
Experimental: Tumor volumes and platinum levels were tracked over a course of 32 days after treatment of multiple doses of compound 8 (dosed at days 0, 3, 7 and 10) in lung cancer (NSCLC) model NCI-H520. Compound 8 was dosed at 15 mg/kg.
Cell dedifferentiation and apoptosis were studied with immunohistochemical (IHC) and TUNEL stainings.

[6] = system: A2780 (ovarian) xenografts; conditions: compound 8 at 20 mg/kg, FIG. 20
Experimental: In these experiments, the ability of compounds to affect the growth of human Calu-6 NSCLC (non-small cell lung cancer) A2780 (ovarian), MIA Paca-2 (pancreatic) and BxPC-3 (pancreatic) xenografts was tested. […] For the MIA Paca-2, BxPC-3 in vivo studies, the tumor material was maintained by serial engraftment in female nude NCR nude mice. To initiate tumor growth, a 1 mm^3 fragment was implanted subcutaneously in the right flank of each test animal. The animals were 9 and 10-11 weeks old at the time the study started for BxPC-3 and MIA Paca-2 models, respectively. For the MX-1 in vivo studies, tumor material was maintained by serial engraftment in athymic nude mice. To initiate tumor growth a 3×3 mm pieces implanted subcutaneously in the right flank of each test animal. The animals were 5 weeks old at the time of implantation.
Tumor measurements were taken twice weekly, using vernier calipers. Tumor volume was calculated using the formula: V=0.5×width×width×length.
When tumors approached a volume of 100 mm^3, mice were randomized into three groups of ten animals. […] Mice were dosed twice weekly for the duration of the study. […] Twenty-four hours after the final dose tumor volumes were measured again for calculation of tumor growth inhibition. […] Final tumor volumes were analyzed using with a one-way analysis of variance and Tukey multiple comparison test.

[7] = system: BxPC-3 (pancreatic) xenografts, KRAS wild type; assay: BxPC-3 xenograft tumor growth inhibition; type: in vivo, mice; conditions: Table 4-2; compound 5 at 15 mg/kg iv twice weekly
Experimental: as §1, §2

albumin tryptic peptide T3, sequence (P02768 45-65 limits assumed): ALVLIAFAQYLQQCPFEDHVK

With `N.N.[Cl][Pt][Cl]` [Cisplatin, reference compound] the “TGI % at Day 12” value ([1]; 3 mg/kg, day 1, 5, 8, 12) was 95.1%, the “tumor regrowth at end of study, Day 75” value ([1]; cisplatin treated group, 3 mg/kg) was “no tumor regrowth” and the Platinum in tumor (H460 tumors) was 0.27 mM/mmole/kg platinum dosed.
With `CC(=O)[O][Pt]([NH2])([NH2])([Cl])([Cl])[O]C(=O)NCCCCCN1C(=O)C=CC1=O` [Compound 8] the “tumor regrowth at end of study, Day 75” value ([1]; 15 mg/kg group) was “no tumor regrowth”, the tumor volume outcome ([1]; day 12) was “Tumor disappeared” and the “platinum delivered to the tumor versus cisplatin” value ([1]; satellite groups, Day 9, FIG. 30) was “higher concentrations of platinum to the tumor than cisplatin”. The “binding to albumin tryptic peptide T3” value [2] was “binds to T3”, the “Half-life Rat” value [3] was 44 h and the “Half-life Dog” value [4] was 174 h. The “apoptosis and dedifferentiation (IHC, TUNEL)” value [5] was “significant and sustained increase in apoptosis and dedifferentiation” and the “tumor inhibition versus cisplatin” value [6] was “superior efficacy in tumor inhibition compared to cisplatin”.
With `O=C1[O][Pt]2([NH][C@@H]3CCCC[C@H]3[NH]2)[O]C1=O` [Oxaliplatin] the TGI % [7] was 21.0% and the Platinum in tumor (H460 tumors) was 0.12 mM/mmole/kg platinum dosed.
For “acetate 6-(2,5-dioxo-2H-pyrrol-1(5H)-yl) hexanoate oxaliplatin [Compound 1]”, the Platinum in tumor (H460 tumors) was 0.57 mM/mmole/kg platinum dosed.
